Read-outs that look alike come from different tables or passages of the source.
What was measured:
Format in all cases: biochemical
subtilisin (Sub) [1] = biological target: T1, subtilisin (Sub) (Bacillus licheniformis, UniProt P00780); experiment: Inhibitory activity toward subtilisin, fluorogenic substrate, microplate reader; details: 10 min, pH 7.5, read-out: Sub Kobs/[I]
[2] = biological target: porcine pancreatic elastase (PPE) (Sus scrofa, UniProt P00772); experiment: Inhibitory activity toward porcine pancreatic elastase, fluorogenic substrate, microplate reader
Description: (§1) The biological activity of peptidyl derivatives of phosphonic analogs of valine, alanine, phenylalanine, 4-guanidinephenylglycine, leucine, and 1-aminobutyric acid, containing the N-terminal biotin residue were tested for their ability to inhibit proteolytic activity of selected serine proteases, and the control cysteine proteases. All tests were performed using a microplate reader. As enzyme substrates fluorescent peptides were used. The method to measure the activity of the compounds obtained are described below for each of the enzymes tested: human neutrophil elastase (HNE), porcine pancreatic elastase (PPE), subtilisin (Sub), cathepsin G (CatG), proteinase 3 (PR3), chymotrypsin (ChTry) trypsin (Try), papain (Pap) and cathepsin L (CatL). Measurement of the inhibitory activity was performed at different inhibitor concentrations ranging from 12.5 nM to 2000nm.
Measurement of inhibitory activity of compounds toward porcine pancreatic elastase (PPE).
(§2) The inhibitory activity assay is performed at 37°C in 0,01M Tris-HCl, 0,05% Triton X-100 buffer, pH 8,5, within 10 min after initial pre-incubation of the enzyme with inhibitor tested at 37°C for 10 min. The enzyme concentration is 60nM. Substrate used Me-Suc-Ala-Ala-Pro-Val-AMC at 100µM. Measurement is taken at an excitation wavelength of 350nm and 460nm emission.
(§3) The IC50 value is the concentration of inhibitor required to inhibit half of the enzyme activity after 10 minutes incubation.

subtilisin (Sub) [3] = biological target: T1, subtilisin (Sub); experiment: Inhibitory activity toward subtilisin, fluorogenic substrate, microplate reader
Description: as §1
Measurement of inhibitory activity of compounds toward subtilisin (Sub).
as §2, with “0,05M” for “0,01M”, “1M NaCl, 0,01%” for “0,05%”, “7,5,” for “8,5,”, “5nM.” for “60nM.”, “Me-Suc-Ala-Ala-Pro-Phe-AMC” for “Me-Suc-Ala-Ala-Pro-Val-AMC”, “5µM.” for “100µM.”
as §3

cathepsin G (CatG) = biological target: T2, cathepsin G (CatG) (Homo sapiens, UniProt P08311); experiment: Inhibitory activity toward cathepsin G, fluorogenic substrate, microplate reader
T2 sequence (P08311 21-244): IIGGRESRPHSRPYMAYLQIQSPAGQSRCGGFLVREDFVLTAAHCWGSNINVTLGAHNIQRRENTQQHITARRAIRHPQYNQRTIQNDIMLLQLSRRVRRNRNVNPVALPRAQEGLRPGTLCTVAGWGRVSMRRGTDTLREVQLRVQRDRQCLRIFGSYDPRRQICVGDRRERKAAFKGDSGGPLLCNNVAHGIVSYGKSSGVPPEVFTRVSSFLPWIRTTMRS
Description: as §1
Measurement of inhibitory activity of compounds toward cathepsin G (CatG).
(§4) The inhibitory activity assay is performed at 37°C in 0,1M Tric-HCl, 0,5M NaCl buffer, pH 7,5, within 10 min after initial pre-incubation of the enzyme with inhibitor tested at 37°C for 10 min. The enzyme concentration is 100nM. Substrate used MCA-Phe-Val-Thr-Gnf-Ser-Trp-Anb-NH2 at 2.5µM. Measurement is taken at an excitation wavelength of 325nm and 400nm emission.
as §3

proteinase 3 (PR3) = biological target: T3, proteinase 3 (PR3) (Homo sapiens, UniProt P24158); experiment: Inhibitory activity toward proteinase 3, fluorogenic substrate, microplate reader
T3 sequence (P24158 28-248): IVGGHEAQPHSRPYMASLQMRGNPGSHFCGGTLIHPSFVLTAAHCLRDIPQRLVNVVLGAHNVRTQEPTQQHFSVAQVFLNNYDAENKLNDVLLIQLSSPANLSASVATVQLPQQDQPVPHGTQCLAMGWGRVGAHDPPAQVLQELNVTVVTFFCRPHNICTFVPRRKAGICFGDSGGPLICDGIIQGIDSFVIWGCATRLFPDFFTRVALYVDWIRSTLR
Description: as §1
Measurement of inhibitory activity of compounds toward proteinase 3(PR3).
as §4, with “17nM.” for “100nM.”, “Abz-Tyr-Tyr-Abu-Anb-NH2” for “MCA-Phe-Val-Thr-Gnf-Ser-Trp-Anb-NH2”, “30µM.” for “2.5µM.”
as §3

[4] = biological target: T4, human neutrophil elastase (HNE) (Homo sapiens, UniProt P08246); experiment: Inhibitory activity toward human neutrophil elastase, fluorogenic substrate, microplate reader
T4 sequence (P08246 30-267): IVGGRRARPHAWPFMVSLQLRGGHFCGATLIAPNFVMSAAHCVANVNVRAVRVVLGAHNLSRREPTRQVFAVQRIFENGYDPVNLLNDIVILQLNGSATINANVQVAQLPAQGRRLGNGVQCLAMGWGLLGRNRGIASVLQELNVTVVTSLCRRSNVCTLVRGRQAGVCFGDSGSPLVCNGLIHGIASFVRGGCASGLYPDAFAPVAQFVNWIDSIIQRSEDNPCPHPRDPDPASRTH
Description: as §1
Measurement of inhibitory activity of compounds toward human neutrophil elastase (HNE).
(§5) The inhibitory activity assay is performed at 37°C in 0,01M HEPES, 0,5M NaCl, 0,03% Triton X-100 buffer, pH 7,5, within 10 min after initial pre-incubation of the enzyme with inhibitor tested at 37°C for 10 min. The enzyme concentration is 0,0025U/ml. Substrate used Me-Suc-Ala-Ala-Pro-Val-AFC at 25µM. Measurement is taken at an excitation wavelength of 400nm and 505nm emission.
as §3

trypsin (Try) = biological target: T5, trypsin (Try) (Bos taurus, UniProt P00760); experiment: Inhibitory activity toward trypsin, fluorogenic substrate, microplate reader; details: 10 min pre-incubation at 37°C, pH 7,5, Cbz-Arg-AFC 100µM; NI = brak inhibicji (no inhibition)
T5 sequence (P00760 24-246): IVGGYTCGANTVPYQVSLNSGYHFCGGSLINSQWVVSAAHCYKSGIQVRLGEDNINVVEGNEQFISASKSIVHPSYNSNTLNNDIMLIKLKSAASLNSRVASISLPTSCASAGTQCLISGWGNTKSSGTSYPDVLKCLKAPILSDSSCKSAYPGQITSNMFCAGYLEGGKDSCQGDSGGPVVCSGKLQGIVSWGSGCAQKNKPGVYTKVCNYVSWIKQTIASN
Description: as §1
Measurement of inhibitory activity of compounds toward trypsin (Try).
as §5, with “0,1M” for “0,01M”, “25nM.” for “0,0025U/ml.”, “Cbz-Arg-AFC” for “Me-Suc-Ala-Ala-Pro-Val-AFC”, “100µM.” for “25µM.”
as §3

chymotrypsin (ChTry) = chymotrypsin (ChTry) (Bos taurus, UniProt P00766); experiment: Inhibitory activity toward chymotrypsin, fluorogenic substrate, microplate reader; details: 10 min pre-incubation at 37°C, pH 7,5, Suc-Ala-Ala-Pro-Phe-AMC 5µM; NI = brak inhibicji (no inhibition)
Description: as §1
Measurement of inhibitory activity of compounds toward […] (ChyTry).
as §4, with “HEPES,” for “Tric-HCl,”, “3nM.” for “100nM.”, “Suc-Ala-Ala-Pro-Phe-AMC” for “MCA-Phe-Val-Thr-Gnf-Ser-Trp-Anb-NH2”, “5µM.” for “2.5µM.”, “350nm” for “325nm”, “460nm” for “400nm”
as §3

Chain of porcine pancreatic elastase (PPE) (P00772 27-266): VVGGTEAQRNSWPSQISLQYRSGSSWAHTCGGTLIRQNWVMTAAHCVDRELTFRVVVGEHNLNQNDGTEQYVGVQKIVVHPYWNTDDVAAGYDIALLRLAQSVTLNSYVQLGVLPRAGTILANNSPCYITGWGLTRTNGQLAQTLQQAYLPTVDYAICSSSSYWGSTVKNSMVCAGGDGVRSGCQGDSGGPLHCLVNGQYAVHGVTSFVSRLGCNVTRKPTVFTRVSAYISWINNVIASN
T1 sequence (P00780 106-379): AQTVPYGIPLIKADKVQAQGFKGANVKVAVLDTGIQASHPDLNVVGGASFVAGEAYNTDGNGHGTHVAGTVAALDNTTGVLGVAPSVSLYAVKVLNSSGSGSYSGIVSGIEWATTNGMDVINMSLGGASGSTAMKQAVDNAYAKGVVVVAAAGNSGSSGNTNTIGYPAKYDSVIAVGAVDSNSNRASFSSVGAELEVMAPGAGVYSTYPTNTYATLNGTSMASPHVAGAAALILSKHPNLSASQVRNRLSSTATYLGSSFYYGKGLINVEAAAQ

| SMILES | kinact/KI (subtilisin (Sub) [1]) | IC50 ([2]; read-out: PPE IC50, 10 min pre-incubation at 37°C, pH 8,5, Me-Suc-Ala-Ala-Pro-Val-AMC 100µM, NI = brak inhibicji (no inhibition)) | IC50 (subtilisin (Sub) [3]) | IC50 (cathepsin G (CatG); read-out: Cat G IC50, 10 min pre-incubation at 37°C, pH 7,5, MCA-Phe-Val-Thr-Gnf-Ser-Trp-Anb-NH2 2.5µM, NI = brak inhibicji (no inhibition)) | IC50 (proteinase 3 (PR3); read-out: PR3 IC50, 10 min pre-incubation at 37°C, pH 7,5, Abz-Tyr-Tyr-Abu-Anb-NH2 30µM, NI = brak inhibicji (no inhibition)) | IC50 ([4]; read-out: HNE IC50, 10 min pre-incubation at 37°C, pH 7,5, Me-Suc-Ala-Ala-Pro-Val-AFC 25µM, NI = brak inhibicji (no inhibition)) | IC50 [2] | PPE Kobs/[I] ([2]; 10 min pre-incubation at 37°C, pH 8,5, Me-Suc-Ala-Ala-Pro-Val-AMC 100µM, NI = brak inhibicji (no inhibition)) | Sub Kobs/[I] (subtilisin (Sub) [3]; 10 min pre-incubation at 37°C, pH 7,5, Me-Suc-Ala-Ala-Pro-Phe-AMC 5µM, NI = brak inhibicji (no inhibition)) | IC50 (cathepsin G (CatG)) | Cat G Kobs/[I] (cathepsin G (CatG); 10 min pre-incubation at 37°C, pH 7,5, MCA-Phe-Val-Thr-Gnf-Ser-Trp-Anb-NH2 2.5µM, NI = brak inhibicji (no inhibition)) | Try Kobs/[I] (trypsin (Try)) | IC50 (proteinase 3 (PR3)) | PR3 Kobs/[I] (proteinase 3 (PR3); 10 min pre-incubation at 37°C, pH 7,5, Abz-Tyr-Tyr-Abu-Anb-NH2 30µM, NI = brak inhibicji (no inhibition)) | IC50 [4] | ChyTr Kobs/[I] (chymotrypsin (ChTry)) |
| --- | --- | --- | --- | --- | --- | --- | --- | --- | --- | --- | --- | --- | --- | --- | --- | --- |
| CC(C)CC(NC(=O)C1CCCN1C(=O)C(NC(=O)CCCCC1SCC2NC(=O)NC21)C(C)C)P(=O)(Oc1ccccc1)Oc1ccccc1 (centres unmarked) [Compound 7, diphenyl (3-methyl-1-(1-(3-methyl-2-(5-(2-oxohexahydro-1H-thieno[3,4-d]imidazol-4-yl)pentanamido)butanoyl)pyrrolidine-2-carboxamido)butyl)phosphonate] | 15000 M⁻¹ s⁻¹ | > 5000 nM | 76.5 ± 1.65 nM | > 5000 nM | > 5000 nM | > 5000 nM |  |  |  |  |  |  |  |  |  |  |
| COC(=O)c1ccc(OP(=O)(Oc2ccc(C(=O)OC)cc2)C(CC(C)C)NC(=O)C2CCCN2C(=O)C(NC(=O)CCCCC2SCC3NC(=O)NC32)C(C)C)cc1 (centres unmarked) [Compound 9, dimethyl 4,4'-(((3-methyl-1-(1-(3-methyl-2-(5-(2-oxohexahydro-1H-thieno[3,4-d]imidazol-4-yl)pentanamido)butanoyl)pyrrolidine-2-carboxamido)butyl)phosphoryl)bis(oxy))dibenzoate] |  |  | 21.2 ± 1.2 nM |  |  |  | > 5000 nM | <200 M^-1S^-1 | 5.4*10^4 M^-1S^-1 | 720 ± 60 nM | 1.6*10^3 M^-1S^-1 | 4.4*10^4 M^-1S^-1 | 59.5 ± 8 nM | 3.9*10^4 M^-1S^-1 | 5.61 ± 0.02 nM | 5.2*10^4 M^-1S^-1 |

From EP2676962A1, “Derivatives of 1-aminoalkylphosphonate diaryl esters, method of 1-aminoalkylphosphonate diaryl ester derivatives preparation and their application” (priority 2012, dated 2013)
